Experimental data: patent publication US20250027130A1, “Nucleic Acid Synthesis and Sequencing Using Tethered Nucleoside Triphosphates” (The Regents of the University of California, priority 2022, published 2025)

Test system: MaPylRS
Experiment: Intact tRNA mass spectrometry: acylation of Ma-tRNA^Pyl by MaPylRS
Format: biochemical, Methanomethylophilus alvus
Settings: MaPylRS 2.5 μM, Ma-tRNA^Pyl 25 μM, 37° C., 2 h; average of 3 technical replicates

CC(C)(C)OC(=O)NCCCCC(C(=O)O)C(=O)O [Substrate 16]
Yield of diacylated Ma-tRNA^Pyl: 0.0%
Yield of monoacylated Ma-tRNA^Pyl: 0.25%
